Results as given in the NIST ThermoML archive (doi:10.1016/j.jct.2019.04.023).
± gives the expanded uncertainty stated by the source.

What was measured:
[1] = 101 kPa, Liquid; for viscosity: Falling or rolling sphere viscometry; for mass density: Vibrating tube method
[2] = xn = mol fraction of the nth substance listed; conditions: 101 kPa, Liquid, x2 = 0; for viscosity: Falling or rolling sphere viscometry; for mass density: Vibrating tube method

SMILES	viscosity ([1]; 293.15 K)	mass density ([1]; 293.15 K)	viscosity ([1]; 298.15 K)	mass density ([1]; 298.15 K)	viscosity ([1]; 303.15 K)	mass density ([1]; 303.15 K)	viscosity ([1]; 308.15 K)	mass density ([1]; 308.15 K)	viscosity ([1]; 313.15 K)	mass density ([1]; 313.15 K)	viscosity ([1]; 318.15 K)	mass density ([1]; 318.15 K)	viscosity ([1]; 323.15 K)	mass density ([1]; 323.15 K)	viscosity ([2]; 293.15 K)	mass density ([2]; 293.15 K)	viscosity ([2]; 298.15 K)	mass density ([2]; 298.15 K)	viscosity ([2]; 303.15 K)	mass density ([2]; 303.15 K)	also measured
CC[N+](CC)=C(N(C)C)N(C)C.O=S(=O)([N-]S(=O)(=O)C(F)(F)F)C(F)(F)F	81.02 ± 3.5 mPa·s	1377.86 ± 2.8 kg/m3	65.01 ± 2.7 mPa·s	1373.16 ± 2.8 kg/m3	52.96 ± 2.1 mPa·s	1368.51 ± 2.8 kg/m3	43.84 ± 1.8 mPa·s	1363.9 ± 2.8 kg/m3	36.79 ± 1.5 mPa·s	1359.32 ± 2.8 kg/m3	31.25 ± 1.3 mPa·s	1354.76 ± 2.8 kg/m3	26.79 ± 1.1 mPa·s	1350.21 ± 2.7 kg/m3							
CCO [ethanol]	1.177 ± 0.048 mPa·s	789.53 ± 1.6 kg/m3	1.074 ± 0.044 mPa·s	785.25 ± 1.6 kg/m3	0.977 ± 0.04 mPa·s	780.93 ± 1.6 kg/m3	0.888 ± 0.036 mPa·s	776.58 ± 1.6 kg/m3	0.819 ± 0.033 mPa·s	772.19 ± 1.6 kg/m3	0.753 ± 0.031 mPa·s	767.75 ± 1.5 kg/m3	0.697 ± 0.028 mPa·s	763.27 ± 1.5 kg/m3							
CCO [ethanol] + CC[N+](CC)=C(N(C)C)N(C)C.O=S(=O)([N-]S(=O)(=O)C(F)(F)F)C(F)(F)F															1.177 ± 0.048 mPa·s	789.53 ± 1.6 kg/m3	1.074 ± 0.044 mPa·s	785.25 ± 1.6 kg/m3	0.977 ± 0.04 mPa·s	780.93 ± 1.6 kg/m3	viscosity ([2]; 308.15 K): 0.888 ± 0.036 mPa·s; mass density ([2]; 308.15 K): 776.58 ± 1.6 kg/m3; viscosity ([2]; 313.15 K): 0.819 ± 0.033 mPa·s; mass density ([2]; 313.15 K): 772.19 ± 1.6 kg/m3; viscosity ([2]; 318.15 K): 0.753 ± 0.031 mPa·s; mass density ([2]; 318.15 K): 767.75 ± 1.5 kg/m3; viscosity ([2]; 323.15 K): 0.697 ± 0.028 mPa·s; mass density ([2]; 323.15 K): 763.27 ± 1.5 kg/m3
CO [methanol]	0.584 ± 0.024 mPa·s	791.3 ± 1.6 kg/m3	0.552 ± 0.022 mPa·s	786.6 ± 1.6 kg/m3	0.524 ± 0.021 mPa·s	781.87 ± 1.6 kg/m3	0.49 ± 0.02 mPa·s	777.12 ± 1.6 kg/m3	0.459 ± 0.019 mPa·s	772.34 ± 1.6 kg/m3	0.439 ± 0.018 mPa·s	767.52 ± 1.5 kg/m3	0.417 ± 0.017 mPa·s	762.67 ± 1.5 kg/m3							
CO [methanol] + CC[N+](CC)=C(N(C)C)N(C)C.O=S(=O)([N-]S(=O)(=O)C(F)(F)F)C(F)(F)F															0.584 ± 0.024 mPa·s	791.3 ± 1.6 kg/m3	0.552 ± 0.022 mPa·s	786.6 ± 1.6 kg/m3	0.524 ± 0.021 mPa·s	781.87 ± 1.6 kg/m3	viscosity ([2]; 308.15 K): 0.49 ± 0.02 mPa·s; mass density ([2]; 308.15 K): 777.12 ± 1.6 kg/m3; viscosity ([2]; 313.15 K): 0.459 ± 0.019 mPa·s; mass density ([2]; 313.15 K): 772.34 ± 1.6 kg/m3; viscosity ([2]; 318.15 K): 0.439 ± 0.018 mPa·s; mass density ([2]; 318.15 K): 767.52 ± 1.5 kg/m3; viscosity ([2]; 323.15 K): 0.417 ± 0.017 mPa·s; mass density ([2]; 323.15 K): 762.67 ± 1.5 kg/m3
